Measurements published in publication PMC11866022, “Long-Chain Cyclic Arylguanidines as Multifunctional Serotonin Receptor Ligands with Antiproliferative Activity” (ACS Omega, 2025).
Several values for one entry are separate records, joined by “and”; a condition that tells them apart may be missing. Identical values can stand only once.

Columns and labels:
5-HT1A = molecular target: T1, 5-HT1A (Homo sapiens, UniProt P08908); assay: Functional cAMP assay (LANCE Ultra), 5-HT1A; type: cell-based; settings: for EC50: agonist mode; for function at 5-HT1A: in words
T1 construct: expressed in transfected cells; host or cells: HEK293
T1 sequence (P08908 1-422): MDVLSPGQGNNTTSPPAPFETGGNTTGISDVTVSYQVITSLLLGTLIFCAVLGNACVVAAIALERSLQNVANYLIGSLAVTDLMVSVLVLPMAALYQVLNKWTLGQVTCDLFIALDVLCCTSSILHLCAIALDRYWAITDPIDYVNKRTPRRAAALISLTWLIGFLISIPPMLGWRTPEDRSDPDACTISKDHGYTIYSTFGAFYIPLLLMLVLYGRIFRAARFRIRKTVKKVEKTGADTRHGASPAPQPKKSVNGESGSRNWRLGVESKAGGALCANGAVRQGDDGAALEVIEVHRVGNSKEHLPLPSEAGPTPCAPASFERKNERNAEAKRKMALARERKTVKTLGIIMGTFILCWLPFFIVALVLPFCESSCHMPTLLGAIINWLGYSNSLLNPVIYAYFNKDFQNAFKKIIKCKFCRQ
Experimental: Their functional activity was also evaluated by assessing their ability to inhibit agonist-induced cAMP production in HEK293 cells (Table 3). Extended radioisotope tests were aimed at detecting potential affinity for other aminergic receptors, whose role in cancer treatment may be important. Functions were tested for all receptors. The essence of functional tests results from the fact that serotonin stimulates tumor progression. Therefore, the ligand should have the potential to reduce its concentration, i.e., act as an antagonist.[39]
The detailed procedure is presented in previous publications.[53] The functional activity of the compounds was assessed using the LANCE Ultra cAMP detection kit (PerkinElmer). […] For other receptors (5-HT7R, 5-HT1AR, and 5-HT6R), 5-CT was used at 10, 100, and 1000 nM, respectively. Each compound was tested in triplicate across eight concentrations. The inhibitory constant (Kb) for each antagonist was calculated using the Cheng–Prusoff equation.

[1] = Metabolic stability in mouse liver microsomes; type: in vitro ADME; settings: MLMs; for main metabolic pathway / metabolic stability, % of remaining: 120 min
Description: Moving on to the next parameter, which is metabolism, we determined metabolic stability, using mouse liver microsomes (MLMs). […]
Main metabolic pathways are marked in red.

[2] = molecular target: T2, human serum albumin (HSA) (Homo sapiens, UniProt P02768); assay: HSA binding by biochromatography (HSA column); type: in vitro ADME; settings: HSA column
T2 construct: purchased
Experimental: (§1) Lipophilicity and affinity for phospholipids for each investigated molecule were assessed. Additionally, selected compounds with the highest biological activities have been characterized by their affinity plasma proteins. All experiments were performed using protocols developed by Valko.[35] These methods facilitated the calculation of chromatographic hydrophobicity indices (CHI) and plasma protein binding percentages (%PPB) in a biochromatographic experiment, with results compared to the reference. A detailed description of the experiments is provided in the Supporting Information (SI), along with the raw data. […] Although high lipophilicity may limit the medical use of the analyzed compounds since they may tend to accumulate excessively in the human body, it is remarkable that several clinically used drugs also have high lipophilicity. […] (Table 5).
(§2) The detailed procedure is presented in previous publications.[53] High-performance liquid chromatography (HPLC) analyses were conducted using the Prominence-1 LC-2030C 3D system (Shimadzu) with a DAD detector, employing three different chromatographic columns with specific stationary phases and mobile phases. The analysis was performed at 30 °C with a flow rate of 1.5 mL/min for IAM and C18 columns, and 0.9 mL/min for the Chiralpak column. Calibration standards for the columns were sourced from various suppliers and dissolved in dimethyl sulfoxide. Detection occurred in the UV range (190–300 nm) with a 5 μL injection volume. Each compound was analyzed in triplicate. Retention times for the tested compounds and calibration standards are provided in the Supporting Information (Tables S1 and S2).

[3] = Lipophilicity, chromatographic hydrophobicity index on C18 (Valko protocol); type: physicochemical
Experimental: as §1, §2

HEK293 = assay: Viability of HEK293 cells; type: cell-based; settings: Homo sapiens
Description: PP 10 was characterized by a moderate 5-HT1A/5-HT5A/5-HT6/5-HT7 antagonist profile. […] Due to its potential function as an […], the viability of HEK293 cells treated with the test compounds was examined. No cytotoxic effects of the compounds were detected in the tested concentration range.

[4] = tested on: AsPC-1 pancreatic cancer cells; assay: Antiproliferative activity (MTS), AsPC-1; type: cell-based, human; settings: Homo sapiens, ASPC1; MTS assay, 72 h
Experimental: The chosen group of ligands was further examined for their ability to inhibit proliferation across multiple cancer cell lines related to the CNS system (1321N1, U87MG, LN-229, and U-251). These cell lines were characterized by different mutation profiles, the main one being the variable status of the p53 protein. In detail, U87MG cells have a wild-type p53 protein, while astrocytoma and the rest of GBM cells harbor mutated p53 protein. Additional assays were performed on MCF7 breast cancer and AsPC-1 pancreatic cancer cells. The wide range of tested lines was aimed at screening the anticancer potential of the tested compounds. The first represents one of the most common and the second one of the most aggressive cancers in the world. Comparing the activity of compounds on GBM cells to other types of cancer may reveal their selectivity and usefulness in targeted therapies. The cytotoxicity of the compounds on normal human astrocytes (NHA) and Feline catus astrocyte (PG-4) was determined. Tests on normal lines serve to verify the potential toxicity of the tested compounds on healthy cells. Due to the targeting of CNS tumors, astrocytes were selected as normal lines.
The detailed procedure is presented in previous publications.[53] Briefly, the study utilized various human cancer and normal cell lines, including LN-229 (glioblastoma), MCF7 (breast carcinoma), HepG2 (hepatoma), U-251 (glioblastoma), U87MG (glioblastoma), AsPC-1 (pancreatic adenocarcinoma), and NHA (normal human astrocytes). Cells were cultured in appropriate media, supplemented with FBS, antibiotics, and other supplements, and incubated at 37 °C with 5% CO2. Compounds were dissolved in DMSO, prepared at various concentrations (1–25 μM), and applied to the cells for 72 h. Cell viability was assessed using the MTS assay, and the inhibitory concentration (IC50) was calculated using GraphPad Prism 8.0. Each compound was tested in triplicate across multiple experiments.

[5] = Affinity to phospholipids, CHI IAM (Valko protocol); type: physicochemical; settings: IAM column
Experimental: as §1, §2

T2 sequence (P02768 25-609): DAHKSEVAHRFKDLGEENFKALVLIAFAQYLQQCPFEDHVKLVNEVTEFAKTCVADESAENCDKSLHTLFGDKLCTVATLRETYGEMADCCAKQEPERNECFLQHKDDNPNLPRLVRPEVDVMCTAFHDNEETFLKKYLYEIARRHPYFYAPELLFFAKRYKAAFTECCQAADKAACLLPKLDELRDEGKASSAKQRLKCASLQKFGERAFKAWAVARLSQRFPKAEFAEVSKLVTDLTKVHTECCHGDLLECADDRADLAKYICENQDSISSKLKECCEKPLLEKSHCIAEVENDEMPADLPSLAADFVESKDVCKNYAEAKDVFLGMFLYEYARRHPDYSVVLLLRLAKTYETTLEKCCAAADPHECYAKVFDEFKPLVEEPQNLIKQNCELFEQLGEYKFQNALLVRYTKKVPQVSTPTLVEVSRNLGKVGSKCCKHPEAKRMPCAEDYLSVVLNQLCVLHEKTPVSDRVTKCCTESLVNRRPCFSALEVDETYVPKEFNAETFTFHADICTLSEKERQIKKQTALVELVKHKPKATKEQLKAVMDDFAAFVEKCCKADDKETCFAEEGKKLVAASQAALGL

EC50 (5-HT1A; Table 3, unit inferred, cAMP) [µM]	function at 5-HT1A (5-HT1A)	metabolic stability, % of remaining [1] [%]	%HSA [2] [%]	CHI C18 pH 2.6 [3]	CHI C18 pH 7.4 [3]	CHI C18 pH 10.5 [3]	IC50 [4] [µM]	CHI IAM [5]	SMILES	main metabolic pathway [1]	logKHSA [2]	IC50 (HEK293) [µM]	Kb (5-HT1A; Table 3, unit inferred, cAMP, antagonist mode, 5-CT) [µM]	number of potential metabolites identified [1]
0.375	agonist	72.76	97.2	92.9	101.5	138.2	> 25	50.9	O=S(=O)(c1cccc2ccccc12)N1CCN(CCNC2=Nc3ccccc3CN2)CC1 [PP 6, N-{2-[4-(Naphthalene-1-sulfonyl)piperazin-1-yl]ethyl}-3,4-dihydroquinazolin-2-amine]	double hydroxylation and double bond reduction	1.41 and 1.4	51	–	–
1.54	agonist	52.60	>99.8	115.8	105.7	128.8	14.6 ± 0.5	59.9	CC1NC(NCCCCCCNS(=O)(=O)c2c(Cl)ccc3ccccc23)=Nc2ccccc21 (centres unmarked) [PP 13, 2-Chloro-N-{6-[(4-methyl-3,4-dihydroquinazolin-2-yl)amino]hexyl}naphthalene-1-sulfonamide]	ring opening and triple hydroxylation	–	> 50	–	11
–	–	93.13	98.8	84.7	103.2	127	12.1 ± 1	56.5	O=S1(=O)c2cccc3cccc(c23)N1CCCCCCNC1=Nc2ccccc2CN1 [PP 24, 3-{6-[(3,4-Dihydroquinazolin-2-yl)amino]hexyl}-2λ^6-thia-3-azatricyclo[6.3.1.0^4,^12]dodeca-1(11),4(12),5,7,9-pentaene-2,2-dione]	hydroxylation	1.65 and 1.6	–	–	–

SMILES	EC50 (5-HT1A; Table 3, unit inferred, cAMP) [µM]	function at 5-HT1A (5-HT1A)	metabolic stability, % of remaining [1] [%]	%HSA [2] [%]	CHI C18 pH 2.6 [3]	CHI C18 pH 7.4 [3]	CHI C18 pH 10.5 [3]	IC50 [4] [µM]	CHI IAM [5]	main metabolic pathway [1]	logKHSA [2]	IC50 (HEK293) [µM]	Kb (5-HT1A; Table 3, unit inferred, cAMP, antagonist mode, 5-CT) [µM]	number of potential metabolites identified [1]
CC1NC(NCCCCCCNS(=O)(=O)c2cccc3ccccc23)=Nc2ccccc21 (centres unmarked) [PP 10, N-{6-[(4-Methyl-3,4-dihydroquinazolin-2-yl)amino]hexyl}naphthalene-1-sulfonamide]	–	antagonist	66.60	97.7	89.8	99.7	120.4	> 25	56.4	double hydroxylation and double bond reduction or double hydroxylation and ring opening	1.47 and 1.5	> 50	0.074	14
O=S(=O)(NCCCCCCNc1ncc2ccccc2n1)c1cccc2ccccc12 [PP 15, N-{6-[(Quinazolin-2-yl)amino]hexyl}naphthalene-1-sulfonamide]	–	–	48.07	97.8	99	104.4	107.2	> 25	45.8	hydroxylation	1.48 and 1.5	> 50	–	–
